Assays:
Assay in all cases: relative IC50 (inflection point of fitted viability curve, relative to fitted max inhibition); higher = less sensitive
Details in all cases: 72 h
SNK-6 (IL-2 2.5 ng/mL) = tested on: SNK-6 (IL-2 2.5 ng/mL)
Protocol: (§1)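 Drug sensitivity and resistance testing: 5 concentrations over a 10,000-fold range, 72 h at 37 °C, viability by CellTiter-Glo normalised to DMSO and benzethonium chloride controls. IC50 is the inflection point of a logistic fit (min fixed at 0, max fitted), so it is relative to the fitted maximal inhibition. Kept only where fitted max inhibition is at least 50%.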

[1] = tested on: normal primary NK cells, pool 2 (3 donors) (IL-2 2.5 ng/mL)
Protocol: as §1

DERL-7 (IL-2 2.5 ng/mL) = tested on: DERL-7 (IL-2 2.5 ng/mL)
Protocol: as §1

NK-YS (IL-2 2.5 ng/mL) = tested on: NK-YS (IL-2 2.5 ng/mL)
Protocol: as §1

[2] = tested on: normal primary NK cells, pool 1 (3 donors), resting (IL-2 0 ng/mL)
Protocol: as §1

KHYG-1 (IL-2 2.5 ng/mL) = tested on: KHYG-1 (IL-2 2.5 ng/mL)
Protocol: as §1

IMC-1 (IL-2 20 ng/mL) = tested on: IMC-1 (IL-2 20 ng/mL)
Protocol: as §1

[3] = tested on: normal primary NK cells, pool 1 (3 donors) (IL-2 2.5 ng/mL)
Protocol: as §1

KAI3 (IL-2 2.5 ng/mL) = tested on: KAI3 (IL-2 2.5 ng/mL)
Protocol: as §1

NKL (IL-2 2.5 ng/mL) = tested on: NKL (IL-2 2.5 ng/mL)
Protocol: as §1

[4] = tested on: normal primary NK cells, pool 3 (3 donors) (IL-2 2.5 ng/mL)
Protocol: as §1

NK-92 (IL-2 2.5 ng/mL) = tested on: NK-92 (IL-2 2.5 ng/mL)
Protocol: as §1

YT (IL-2 2.5 ng/mL) = tested on: YT (IL-2 2.5 ng/mL)
Protocol: as §1

Row | Compound | relative IC50 (SNK-6 (IL-2 2.5 ng/mL)) | relative IC50 [1] | relative IC50 (DERL-7 (IL-2 2.5 ng/mL)) | relative IC50 (NK-YS (IL-2 2.5 ng/mL)) | relative IC50 [2] | relative IC50 (KHYG-1 (IL-2 2.5 ng/mL)) | relative IC50 (IMC-1 (IL-2 20 ng/mL)) | relative IC50 [3] | relative IC50 (KAI3 (IL-2 2.5 ng/mL)) | relative IC50 (NKL (IL-2 2.5 ng/mL)) | relative IC50 [4] | relative IC50 (NK-92 (IL-2 2.5 ng/mL)) | relative IC50 (YT (IL-2 2.5 ng/mL))
1 | O=C1c2c(O)ccc(O)c2C(=O)c2c(NCCNCCO)ccc(NCCNCCO)c21 [Mitoxantrone] | 34.8 nM | 185 nM | 80.5 nM | 114 nM | 151 nM | 158 nM | 170 nM | 322 nM | 91 nM | 32.2 nM |  |  | 
2 | N.N.[Cl][Pt][Cl] [Cisplatin] |  | 14800 nM |  |  |  |  | 515 nM |  |  |  | 15600 nM |  | 
3 | CO[C@H]1/C=C\C=C(/C)C(=O)NC2=CC(=O)C(NCCN(C)C)=C(C[C@@H](C)C[C@H](OC)[C@H](O)[C@@H](C)/C=C(\C)[C@@H]1OC(N)=O)C2=O [Alvespimycin] | 20.5 nM | 29.5 nM | 49.1 nM | 25.1 nM |  | 91.8 nM | 192 nM | 29.4 nM | 44.5 nM | 31.9 nM | 86.5 nM | 68.8 nM | 130 nM
4 | CCNC(=O)CCC/C=C\C[C@@H]1[C@@H](/C=C/[C@@H](O)CCc2ccccc2)[C@H](O)C[C@@H]1O [Bimatoprost] |  | > 5500 nM | > 5500 nM | > 5500 nM |  | > 5500 nM | > 5500 nM |  | > 5500 nM |  | > 5500 nM | > 5500 nM | > 5500 nM
5 | COc1cc2nccc(Oc3ccc(NC(=O)C4(C(=O)Nc5ccc(F)cc5)CC4)cc3)c2cc1OC [Cabozantinib] |  |  |  |  |  |  |  | > 1000 nM |  |  |  |  | 
6 | Cn1cc(CNCC2CCN(c3ncc(C(=O)NO)cn3)CC2)c2ccccc21 [Quisinostat] | 90.1 nM | 5.99 nM | 10.6 nM | 20.3 nM | 2.39 nM | 21.4 nM | 35.8 nM | 7.78 nM | 14.7 nM | 11 nM | 13.1 nM | 39.5 nM | 58.3 nM
7 | CCOc1cc2ncc(C#N)c(Nc3ccc(F)c(Cl)c3)c2cc1NC(=O)/C=C/CN(C)C [Pelitinib] | 103 nM | 260 nM | 293 nM | 820 nM | 459 nM | 382 nM | 966 nM | 300 nM | 260 nM | 475 nM | 429 nM | 510 nM | 496 nM
8 | O=C(NOC[C@H](O)CO)c1ccc(F)c(F)c1Nc1ccc(I)cc1F |  |  | 10 nM |  |  | 31.6 nM |  |  |  | 19.9 nM | > 1000 nM | > 1000 nM | 
9 | COc1cc2c(N3CCN(C(=O)Nc4ccc(OC(C)C)cc4)CC3)ncnc2cc1OCCCN1CCCCC1 [Tandutinib] |  |  |  |  |  |  |  |  |  |  | > 1000 nM |  | 
10 | COc1cc2c(cc1-c1c(C)noc1C)ncc1[nH]c(=O)n([C@H](C)c3ccccn3)c12 [I-BET151] | 149 nM | 1240 nM | 306 nM | 707 nM | 1010 nM | 606 nM | 2040 nM | 1040 nM | 848 nM | 375 nM | 1850 nM |  | 966 nM
11 | Cc1cc(Nc2cc(N3CCN(C)CC3)nc(/C=C/c3ccccc3)n2)n[nH]1 [ENMD-2076] | 541 nM | 1290 nM | 497 nM | 293 nM | 1710 nM | 482 nM | 573 nM | 1500 nM | 256 nM | 503 nM | 1970 nM | 901 nM | 1360 nM
12 | Cc1c(NC(=O)OC[C@@H]2COCCN2)cn2ncnc(Nc3ccc4c(cnn4Cc4cccc(F)c4)c3)c12 |  | 3090 nM | 2730 nM |  | 3970 nM | 2230 nM |  |  | 3180 nM | 3110 nM |  | 2400 nM | 
13 | C/C(=C\c1csc(C)n1)[C@@H]1C[C@@H]2O[C@]2(C)CCC[C@H](C)[C@H](O)[C@@H](C)C(=O)C(C)(C)[C@@H](O)CC(=O)N1 [Ixabepilone] | 348 nM |  | 335 nM | 348 nM | > 1000 nM | 301 nM | 360 nM | > 1000 nM | 383 nM | 357 nM |  | 398 nM | 308 nM
14 | CC(C)(C#N)c1cc(Cn2cncn2)cc(C(C)(C)C#N)c1 [Anastrozole] |  | > 10000 nM |  | > 10000 nM |  | > 10000 nM | > 10000 nM |  |  |  | > 10000 nM |  | 
15 | C1=N/C2=N/c3ccc(OCCN4CCCC4)c(c3)COC/C=C/COCc3cccc(c3)C(=C1)N2 [Pacritinib] | 1390 nM | 367 nM | 560 nM | 982 nM | 838 nM | 826 nM | 3880 nM | 410 nM | 569 nM | 777 nM | 627 nM | 1220 nM | 910 nM
16 | CO[C@@]12[C@H](COC(N)=O)C3=C(C(=O)C(C)=C(N)C3=O)N1C[C@@H]1N[C@@H]12 [Mitomycin C] | 423 nM | 1010 nM |  | 350 nM | 1630 nM | 432 nM | 2710 nM |  | 1060 nM | 152 nM | 1410 nM | 1510 nM | 3200 nM
17 | Cc1nc(N)sc1-c1ccnc(Nc2ccc(N3CCOCC3)cc2)n1 [CYC-116] | 171 nM | 1600 nM | 538 nM | 238 nM |  | 599 nM | 913 nM | 1810 nM | 1100 nM | 989 nM | 2800 nM | 889 nM | 1400 nM
18 | COc1cc(N2CCN(C)CC2)ccc1Nc1nccc(-c2cn(C)c3cnccc23)n1 [AZ191] | 3570 nM | 3700 nM | 1650 nM | 2440 nM | 4320 nM | 1890 nM | 2910 nM | 3430 nM | 2510 nM | 2340 nM | 3870 nM | 3940 nM | 
19 | Cc1ccc(NC(=O)c2ccc(CN3CCN(C)CC3)cc2)cc1Nc1nccc(-c2cccnc2)n1 [Imatinib] | 4290 nM |  | 2190 nM | 2920 nM | 1980 nM | 3080 nM | 3400 nM | 1650 nM | 3230 nM | 3600 nM |  | 2230 nM | 2740 nM
20 | CN1CCc2c(c3ccccc3n2Cc2ccc(C(=O)NO)cc2)C1 [Tubastatin A] | 1430 nM |  | 3400 nM | 1810 nM | 1510 nM | 2550 nM | 3270 nM | 1790 nM | 1170 nM | 1030 nM |  | 1580 nM | 2420 nM
21 | Cc1cc(Nc2ncc(Cl)c(Nc3ccccc3S(=O)(=O)C(C)C)n2)c(OC(C)C)cc1C1CCNCC1 [Ceritinib] |  |  |  | > 2500 nM | 464 nM |  | > 2500 nM | 616 nM |  | > 2500 nM |  |  | 
22 | CNNCc1ccc(C(=O)NC(C)C)cc1 [Procarbazine] |  | > 10000 nM | > 10000 nM | > 10000 nM |  | > 10000 nM | > 10000 nM | > 10000 nM | > 10000 nM | > 10000 nM | > 10000 nM | > 10000 nM | > 10000 nM
23 | CCNC(=O)c1noc(-c2cc(C(C)C)c(O)cc2O)c1-c1ccc(CN2CCOCC2)cc1 [Luminespib] | 12.4 nM | 3.27 nM | 3.05 nM | 3.79 nM |  | 10.4 nM | 9.73 nM | 3.66 nM | 3.47 nM | 3.28 nM | 4.81 nM | 7.37 nM | 26.2 nM
24 | C[C@@H](Oc1ccc2[nH]nc(/C=C/c3cnn(CCO)c3)c2c1)c1c(Cl)cncc1Cl | 15.7 nM | 15.6 nM | 91.8 nM | 59.2 nM |  | 16.1 nM | 165 nM | 47.9 nM | 20.9 nM | 11.9 nM | 30.1 nM | 50.1 nM | 224 nM
25 | CCN(CC)CCCC(C)Nc1ccnc2cc(Cl)ccc12 (stereo not drawn) [Chloroquine] |  | 14300 nM |  |  |  |  | 33400 nM |  |  |  | 9060 nM |  | 
26 | CNC(=O)c1cc(Oc2ccc(NC(=O)Nc3ccc(Cl)c(C(F)(F)F)c3)cc2)ccn1 [Sorafenib] |  | > 1000 nM |  |  |  |  | > 1000 nM | > 1000 nM |  | > 1000 nM | > 1000 nM |  | 
